From ChEMBL document CHEMBL4196087 (Eur J Med Chem, 2018) come the findings set out here.

pIC50: −log10 of the molar value. Converted amounts (≈) assume the structure as drawn. Some results are limits rather than exact numbers.

In one assay the test system is MOLT-4. Description: Growth inhibition of human MOLT4 cells at 10^-5 M incubated for 48 hrs by sulforhodamine B assay relative to control. In kind it is functional. Particulars: MOLT-4, 48 h, read-out: GI.
The test system of a further assay is HOP-62. Briefly: Growth inhibition of human HOP62 cells at 10^-5 M incubated for 48 hrs by sulforhodamine B assay relative to control. In kind it is functional. The following applies: HOP-62, 48 h, read-out: GI.
The test system of another assay is HOP-92. Briefly: Growth inhibition of human HOP92 cells at 10^-5 M incubated for 48 hrs by sulforhodamine B assay relative to control. The format is functional. The following applies: HOP-92, 48 h, read-out: GI.
The test system of the next assay is LOX IMVI. Briefly: Growth inhibition of human LOXIMVI cells at 10^-5 M incubated for 48 hrs by sulforhodamine B assay relative to control. The following applies: read-out: GI. In kind it is functional.
In assay [1] the test system is UO-31. Description: Growth inhibition of human UO31 cells at 10^-5 M incubated for 48 hrs by sulforhodamine B assay relative to control. In kind it is functional. The following applies: UO-31, 48 h, read-out: GI.
The next assay deals with PC-3. Briefly: Growth inhibition of human PC3 cells at 10^-5 M incubated for 48 hrs by sulforhodamine B assay relative to control. The format is functional. Particulars: PC-3, 48 h, read-out: GI.
Another assay has as its system T47D. Briefly: Growth inhibition of human T47D cells at 10^-5 M incubated for 48 hrs by sulforhodamine B assay relative to control. In kind it is functional. Particulars: read-out: GI.
Another assay relates to SK-OV-3. Description: Growth inhibition of human SKOV3 cells at 10^-5 M incubated for 48 hrs by sulforhodamine B assay relative to control. In kind it is functional. Particulars: SK-OV-3, 48 h, read-out: GI.
For assay [2], the system named is UO-31. Briefly: Antiproliferative activity against human UO31 cells after 48 hrs by MTT assay. The following applies: UO-31, 48 h. The format is functional, cell-based.
The subject of assay [3] is UO-31. Description: Potency index, ratio of doxorubicin IC50 to compound IC50 for antiproliferative activity against human UO31 cells. The format is functional.
The subject of assay [4] is UO-31. Briefly: Antiproliferative activity against human UO31 cells after 48 hrs by SRB assay. In kind it is functional. Particulars: UO-31, 48 h.
Assay [5] has as its system Bacillus subtilis. Briefly: Antibacterial activity against Bacillus subtilis at 37 degC measured after 24 hrs by agar disc diffusion method. In kind it is functional.
Another assay has as its system Staphylococcus aureus. Briefly: Antibacterial activity against Staphylococcus aureus at 37 degC measured after 24 hrs by agar disc diffusion method. The format is functional.
For the next assay, the system named is Escherichia coli. Description: Antibacterial activity against Escherichia coli at 37 degC measured after 24 hrs by agar disc diffusion method. In kind it is functional.
Assay [6] concerns Pseudomonas aeruginosa. Description: Antibacterial activity against Pseudomonas aeruginosa at 37 degC measured after 24 hrs by agar disc diffusion method. In kind it is functional.
A further assay concerns CCRF-CEM. Description: Growth inhibition of human CCRF-CEM cells at 10^-5 M incubated for 48 hrs by sulforhodamine B assay relative to control. Particulars: read-out: GI. In kind it is functional.
In a further assay the test system is HL-60(TB). Description: Growth inhibition of human HL-60(TB) cells at 10^-5 M incubated for 48 hrs by sulforhodamine B assay relative to control. The format is functional. The following applies: HL-60, 48 h, read-out: GI.
The test system of another assay is K562. Briefly: Growth inhibition of human K562 cells at 10^-5 M incubated for 48 hrs by sulforhodamine B assay relative to control. In kind it is functional. Particulars: K562, 48 h, read-out: GI.
The next assay has as its system RPMI-8226. Description: Growth inhibition of human RPMI8226 cells at 10^-5 M incubated for 48 hrs by sulforhodamine B assay relative to control. In kind it is functional. The following applies: RPMI-8226, 48 h, read-out: GI.
In another assay the test system is NCI-H226. Description: Growth inhibition of human NCI-H226 cells at 10^-5 M incubated for 48 hrs by sulforhodamine B assay relative to control. In kind it is functional. Particulars: NCI-H226, 48 h, read-out: GI.
The subject of another assay is SF-539. Briefly: Growth inhibition of human SF539 cells at 10^-5 M incubated for 48 hrs by sulforhodamine B assay relative to control. In kind it is functional. Particulars: SF-539, 48 h, read-out: GI.
The subject of a further assay is SNB-75. Description: Growth inhibition of human SNB75 cells at 10^-5 M incubated for 48 hrs by sulforhodamine B assay relative to control. The format is functional. The following applies: SNB-75, 48 h, read-out: GI.
In the next assay the test system is SK-MEL-5. Briefly: Growth inhibition of human SK-MEL-5 cells at 10^-5 M incubated for 48 hrs by sulforhodamine B assay relative to control. The format is functional. Particulars: SK-MEL-5, 48 h, read-out: GI.
A further assay concerns IGROV-1. Description: Growth inhibition of human IGROV1 cells at 10^-5 M incubated for 48 hrs by sulforhodamine B assay relative to control. The format is functional. The following applies: IGROV-1, 48 h, read-out: GI.
The next assay deals with A498. Briefly: Growth inhibition of human A498 cells at 10^-5 M incubated for 48 hrs by sulforhodamine B assay relative to control. In kind it is functional. Particulars: A498, 48 h, read-out: GI.
In the next assay the test system is MCF7. Description: Growth inhibition of human MCF7 cells at 10^-5 M incubated for 48 hrs by sulforhodamine B assay relative to control. The format is functional. The following applies: MCF7, 48 h, read-out: GI.
The test system of a further assay is MDA-MB-231. Briefly: Growth inhibition of human MDA-MB-231 cells at 10^-5 M incubated for 48 hrs by sulforhodamine B assay relative to control. The format is functional. The following applies: MDA-MB-231, 48 h, read-out: GI.
The next assay deals with MDA-MB-468. Briefly: Growth inhibition of human MDA-MB-468 cells at 10^-5 M incubated for 48 hrs by sulforhodamine B assay relative to control. The format is functional. The following applies: MDA-MB-468, 48 h, read-out: GI.
Assay [7] deals with Bacillus subtilis. Briefly: Antibacterial activity against Bacillus subtilis at 37 degC measured after 24 hrs by CLSI M7-A4 protocol based method. The format is functional.
Assay [8] concerns Pseudomonas aeruginosa. Description: Antibacterial activity against Pseudomonas aeruginosa at 37 degC measured after 24 hrs by CLSI M7-A4 protocol based method. The format is functional.
Assay [9] deals with HL-60. Description: Antiproliferative activity against human HL60 cells after 48 hrs by MTT assay. The format is functional, cell-based. Particulars: HL-60, 48 h.
For assay [10], the system named is HL-60. Briefly: Potency index, ratio of doxorubicin IC50 to compound IC50 for antiproliferative activity against human HL60 cells. The format is functional.
Assay [11] relates to HL-60. Briefly: Antiproliferative activity against human HL60 cells after 48 hrs by SRB assay. The format is functional. Particulars: HL-60, 48 h, read-out: LC50 (the source's name).

`O=C(CSc1nnc(CN2CCN(c3cc4c(cc3F)c(=O)c(C(=O)O)cn4C3CC3)CC2)o1)c1ccccc1`: the inhibition of growth at 10 µM in the assay on MOLT-4 is less than 20%; with HOP-62 it was less than 20%; with HOP-92 it was less than 20%; in the assay on LOX IMVI, 25.3%; in the assay with UO-31 [1], 20.3%; with PC-3, 23.9%. Further, the inhibition of growth at 10 µM in the assay on T47D and in the assay on SK-OV-3 was less than 20% in each case.

As for `O=C(CSc1nnc(CN2CCN(c3cc4c(cc3F)c(=O)c(C(=O)O)cn4C3CC3)CC2)o1)c1ccc(Cl)cc1`, the inhibition of growth at 10 µM in the assay on MOLT-4 was less than 20%; in the assay with HOP-62 it was 23.5%; with HOP-92, 27.2%; in the assay on LOX IMVI, less than 20%; with UO-31 [1] it was less than 20%; in the assay on PC-3 it was less than 20%. The inhibition of growth at 10 µM was found to be 23% with T47D and 20.9% with SK-OV-3.

As to `O=C(CN1CCN(c2cc3c(cc2F)c(=O)c(C(=O)O)cn3C2CC2)CC1)N/N=C/c1ccc(O)cc1O`, the pIC50 with UO-31 [2] was 5.50. In the assay on UO-31 [3], the “Ratio IC50” value was 1.5 - 9. This molecule also gave an LC50 with UO-31 [4] of 13 µM. Further, the “diameter of the inhibition zone (DIZ)” value with Bacillus subtilis [5] came out at 24 mm; in the assay on Staphylococcus aureus it was 21 mm; in the assay on Escherichia coli, 20 mm; with Pseudomonas aeruginosa [6], 23 mm.

`CSc1nnc(CN2CCN(c3cc4c(cc3F)c(=O)c(C(=O)O)cn4C3CC3)CC2)o1`: the inhibition of growth at 10 µM is less than 20% in the assay with MOLT-4; less than 20% in the assay with HOP-62; less than 20% in the assay with HOP-92; less than 20% in the assay on LOX IMVI; less than 20% with UO-31 [1]; 24.9% in the assay on PC-3. The results for the inhibition of growth at 10 µM with T47D and in the assay with SK-OV-3 were 21.1% and less than 20%, respectively.

As for `O=C(CN1CCN(c2cc3c(cc2F)c(=O)c(C(=O)O)cn3C2CC2)CC1)N/N=C/c1ccc(Cl)cc1`, the inhibition of growth at 10 µM in the assay on CCRF-CEM, in the assay with HL-60(TB), in the assay on K562, in the assay with MOLT-4, with RPMI-8226 and in the assay on HOP-62 was less than 20% in each case. Also, the inhibition of growth at 10 µM in the assay with HOP-92, in the assay on NCI-H226, in the assay with SF-539, in the assay on SNB-75, with LOX IMVI and with SK-MEL-5 was less than 20% each time. In addition, the inhibition of growth at 10 µM was less than 20% with IGROV-1; 26.7% with A498; less than 20% in the assay on UO-31 [1]; less than 20% in the assay on PC-3; less than 20% in the assay with MCF7; less than 20% in the assay with MDA-MB-231. For the same molecule, the inhibition of growth at 10 µM with T47D and in the assay with MDA-MB-468 was less than 20% in each case. The “diameter of the inhibition zone (DIZ)” value in the assay with Bacillus subtilis [5] is on record as 30 mm; in the assay with Staphylococcus aureus, 28 mm; in the assay on Escherichia coli, 28 mm; in the assay on Pseudomonas aeruginosa [6], 30 mm. The minimal inhibitory concentration (MIC) in the assay with Bacillus subtilis [7] came out at 62 µg/mL (≈ 118 µM); against Pseudomonas aeruginosa [8], 60 µg/mL (≈ 114 µM).

As to `O=C(CN1CCN(c2cc3c(cc2F)c(=O)c(C(=O)O)cn3C2CC2)CC1)N/N=C/c1c[nH]c2ccccc12`, the inhibition of growth at 10 µM was 54.4% in the assay on CCRF-CEM; 43% in the assay on HL-60(TB); less than 20% with K562; 24.6% in the assay on MOLT-4; less than 20% with RPMI-8226; less than 20% with HOP-62. Also, the inhibition of growth at 10 µM in the assay on HOP-92, in the assay with NCI-H226, with SF-539, in the assay on SNB-75, in the assay on LOX IMVI and with SK-MEL-5 was less than 20% each time. Moreover, the inhibition of growth at 10 µM in the assay with IGROV-1 is less than 20%; in the assay on A498, less than 20%; with UO-31 [1], 28.3%; in the assay with PC-3 it was less than 20%; in the assay on MCF7, 27.1%; with MDA-MB-231 it was 20.9%. Moreover, the inhibition of growth at 10 µM with T47D and with MDA-MB-468 was less than 20% each time. The molecule also had a pIC50 in the assay on HL-60 [9] of 5.81. In addition, in the assay on HL-60 [10], the “Ratio IC50” value stood at 5.7. For the same molecule, the CC50 in the assay on HL-60 [11] was determined as 15.9 µM. Besides, the “diameter of the inhibition zone (DIZ)” value came to 37 mm with Bacillus subtilis [5], 31 mm in the assay on Staphylococcus aureus, 31 mm in the assay with Escherichia coli and 33 mm in the assay with Pseudomonas aeruginosa [6]. In addition, the MIC amounted to 58 µg/mL (≈ 109 µM) in the assay with Bacillus subtilis [7] and 30 µg/mL (≈ 56.5 µM) against Pseudomonas aeruginosa [8].

As for `O=C(O)c1cn(C2CC2)c2cc(N3CCN(Cc4nnc(S)o4)CC3)c(F)cc2c1=O`, the inhibition of growth at 10 µM in the assay on MOLT-4 is 23%; with HOP-62, less than 20%; in the assay with HOP-92 it was less than 20%; with LOX IMVI it was less than 20%; in the assay on UO-31 [1], less than 20%; with PC-3, 23.4%. Besides, the inhibition of growth at 10 µM in the assay with T47D and in the assay with SK-OV-3 was less than 20% in each case. In addition, the “diameter of the inhibition zone (DIZ)” value with Bacillus subtilis [5] is on record as 29 mm; in the assay on Staphylococcus aureus, 24 mm; in the assay with Escherichia coli, 25 mm; in the assay with Pseudomonas aeruginosa [6] it was 27 mm.
